Experimental findings from US8802104B2, “Parathyroid hormone receptor activation and stem and progenitor cell expansion” (The General Hospital Corporation, priority 2002, dated 2014) are described below.

The test system of assay [1] is hematopoietic stem cells (LTC-ICs) in the bone marrow. Nature of the assay: In vivo PTH administration: LTC-IC frequency in bone marrow. On the set-up: species or system C57Bl/6 mice. The procedure:
Murine bone marrow stromal cells from confluent cultures were irradiated (15Gy) and plated at a concentration of 20,000 cells/well in 96-well plates in long-term culture medium. Cells were then seeded into the plates in two-fold serial limiting dilutions and cultured at 33° C./5% CO2 in a humidified atmosphere. Cultures were maintained for 5 weeks, changing half of the medium in the wells weekly. Following this, the medium was replaced with methylcellulose containing medium supplemented with recombinant cytokines as described above, then scored for colony growth ten days following the addition of the medium.
For PTH administration, 6-8 week old wild type C57/B male mice were used. […] Control mice (n=4) were injected with an equivalent volume of vehicle. At the end of the treatment period, ionized serum calcium was measured by the Ciba/Corning 634 Ca^++/pH analyzer, and, after euthanasia, the hind limbs and forelimbs were dissected and utilized for cytologic and histologic analysis.
As treatment of stromal cells with PTH led to an increase in the ability of the stromal cell population to support hematopoietic stem cells, it was investigated whether these effects could be recapitulated in vivo. Wild-type C57Bl/6 mice were injected daily with PTH using an intermittent dosing schedule known to increase osteoblasts, and the frequencies of LTC-ICs in the bone marrow were measured. […] To further define that functional stem cells were increased after PTH treatment, an in vivo assay of competitive transplantation into secondary recipients was used and a >2-fold increase in HSCs was documented (P=<0.05, FIG. 5f). […] Therefore, pharmacological activation of PPR increased stem cell number, but appeared to do so without a broad hematopoietic cell expansion.

Assay [2] relates to HSC pool in the bone marrow. Nature of the assay: HSC pool in bone marrow following chemotherapy (competitive transplant). The format is in vivo, C57Bl/6 mice. The procedure:
(§1) Wild-type C57Bl/6 mice were treated with 5 mg of cyclophosphamide (Day 1). The day following injection of cyclophosphamide, mice received no treatment or were treated for 8 days with G-CSF (5 μg/day), 11 days with PTH (80 μg/kg/day) or a combination of G-CSF plus PTH. Mice that received a combination of both G-CSF and PTH received G-CSF treatment for 8 days and PTH treatment for 11 days. Following this treatment protocol, mice were injected with cyclophosphamide on Day 15 and treated with G-CSF, PTH or G-CSF and PTH as described above. The treatment protocol was then repeated for two subsequent cycles, as outlined in FIG. 7.
(§2) At the end of the four-cycle treatment with cyclophosphamide and G-CSF/PTH, the bone marrow was removed from the treated mice and competitive transplants into B6.SJL mice were performed to measure the maintenance of the HSC pool in the bone marrow. This involved mixing 5×10^5 BM cells from the treated C57Bl/6 mice (CD45.2) with 2.5×10^5 BM cells from the B6.SJL mice (CD45.1). These cells were then injected into lethally irradiated B6.SJL mice. Eighteen weeks following injection of the cells, peripheral blood was collected from the mice and the relative contribution of the HSCs from the treated animals was measured by flow cytometry for the CD45.2^+ cells. To assess the ability of the HSCs to be mobilized into the peripheral circulation, one week following treatment mice were mobilized with G-CSF (5 μg/day) for 5 days. Peripheral blood (300 μl) was collected from these mice and mixed with 2.5×10^5 BM cells from a B6.SJL mouse. These cells were injected into a lethally irradiated B6.SJL host. Eighteen weeks following injection of the cells, peripheral blood was collected from the mice and the relative contribution of the HSCs from the treated animals was measured by flow cytometry for the CD45.2^+ cells.

In assay [3] the test system is HSCs in the peripheral circulation. The assay can be described thus: G-CSF mobilization of HSCs into peripheral circulation after chemotherapy. The format is in vivo, C57Bl/6 mice. As for the experimental part:
as §1, §2

Assay [4] deals with C-1498/GFP leukemia cells. The assay can be described thus: Leukemia outgrowth in niche-stimulated animals. In kind it is in vivo, mice. An excerpt: The kinetics of leukemia cell engraftment, growth, and maturation were studied in normal mice. In an effort to analyze the growth and fate of C-1498 leukemia cells transplanted into mice, the cells were transduced with a retrovirus expressing GFP(C-1498/GFP). This allows easy tracking of these cells in vivo using GFP as a marker (FIG. 9a). The acute myelogenous leukemia cell line C-1498, a spontaneously-arising acute myelomonocytic leukemia derived from C57/BL6 (H2-b) mice, is easily transplantable, can be cultured in vitro, and infected with retroviruses.
Attention was subsequently directed to determining how activation of the stem cell niche with PTH might affect leukemia growth and maturation. To investigate the kinetics of leukemia outgrowth in “niche-stimulated” animals, animals were pre-stimulated with PTH at 80 μg/kg/day (versus saline alone) for one month. Mice were then lethally irradiated at 10 Gray, and then transplanted with 50,000 leukemia cells (GFP+) and 1×10^6 normal bone marrow cells (GFP-) (FIG. 10a). At 15 days post-transplantation, bone marrow was harvested, and, then, GFP-positive cells were scored as percentage and in absolute number. Since the absolute number of total cells was not statistically different between both groups, only the percentage figures are shown in FIG. 10b, left panel.
In mock-treated animals, osteoblasts and osteoprogenitors, identified at PTH-receptor positive cells, were found lining the endostial surfaces of bone.

The subject of a further assay is leukemic cells. Nature of the assay: Direct effect of PTH on leukemic cells in vitro. The format is cell-based.

Take Rat PTH (1-34): the “hematopoietic stem cells over mock injected mice” value in assay [1] (four weeks PTH treatment, 80 μg/Kg i.p. 5x/week) is recorded as “significant increase in the hematopoietic stem cells”. The “limit dilution LTC-IC assay, stem-like cells” value in assay [1] (four weeks PTH, P<0.005, FIG. 5e) is “an increase in stem-like cells”. Further, in assay [1] (two week PTH treatment, 80 μg/Kg i.p.), the “hematopoietic stem cell population (frequencies of LTC-ICs in the bone marrow)” value is “did not result in any significant increase”. For the same substance, in assay [2] (PTH, non-G-CSF treated animals), the “HSC pool in the bone marrow following myelotoxic chemotherapy” value is listed as “increased the HSC pool”. Besides, in assay [2] (concurrent treatment with PTH and G-CSF), the “HSC pool in the bone marrow following chemotherapy” value was “retention of the HSC pool”. Also, in assay [3] (no supportive G-CSF during chemotherapy, prior PTH treatment), the “mobilization of HSCs into the circulation with G-CSF” value was “increased with prior PTH treatment”. Moreover, the “mobilization of HSCs into the peripheral circulation” value in assay [3] (supportive G-CSF with concurrent PTH) is “partially reversed”. In assay [4] (10 micron bone sections, PTH-treated animals), the “localisation of PTH-r positive cells (osteoblasts, osteoprogenitors)” value is on record as “migrated extensively into the marrow”. Moreover, the “GFP-positive leukemia cells in bone sections (histology)” value in assay [4] (10 micron bone sections, PTH-treated vs mock-treated) is reported as “markedly reduced”. In assay [4] (PTH 80 μg/kg/day one month pre-stimulation, 15 days post-transplantation, 3 of 3 experiments), the “number of GFP-positive leukemia initiating cells in bone marrow” value is “markedly reduced”. For the same substance, the “kinetics of normal hematopoiesis” value in assay [4] (PTH treated animal, FIG. 11) is “did not change”. Also, the “direct effect on leukemic cells” value in the assay with leukemic cells is “did not directly affect”.
